The values below are quoted from earlier work in patent US20130267590A1, “RETIGABINE COMPOSITIONS” (Dr. Reddy's Laboratories Limited, priority 2011, published 2013).

Data set [1] has as its system KCNQ (Kv7.2 to 7.5) family of ion channels. To be noted: in vitro.

Counter-ions that a name gives are not always drawn.

`CCOC(=O)Nc1ccc(NCc2ccc(F)cc2)cc1N` [dihydrochloride salt of retigabine]: the storage stability result (medium to long-term storage at −18° C.) is on record as “unstable”. As to `CCOC(=O)Nc1ccc(NCc2ccc(F)cc2)cc1N` [retigabine, ethyl 2-amino-4-(4-fluorobenzylamino) phenylcarbamate], the oxidation stability result (contact with air) is “oxidize upon contact with air”. Moreover, the “effect on transmembrane potassium currents mediated by KCNQ channels” value in data set [1] is listed as “enhances transmembrane potassium currents”.
